Test results from US8088757B2, “Betulinol derivatives as anti-cancer agents” (priority 2004, dated 2012).
Like-named read-outs stand apart in the source and are kept apart here.

Columns and labels:
[1] = Solubility in DMSO diluted with culture medium (GC standard curve); details: for State of solution: 0.5 mg/mL BA
Procedure: The residue was dissolved in chloroform analyzed on GC.
Ethyl ether was then evaporated. […] Concentration of drug in the above solutions was analyzed by GC and determined from the standard solubility curve.

LNCaP = assay: MTT cytotoxicity assay, LNCaP prostate cancer cells; format: cell-based, human; details: Homo sapiens, read-out: Growth Inhibition %; for inhibition at 25 µM: 2.5 × 10^−5 M; for inhibition at 2.5 µM: 2.5 × 10^−6 M; for inhibition at 0.25 µM: 2.5 × 10^−7 M
Procedure: The human prostate cancer LNCaP, PC-3, and DU-145 cell lines, as well as human fibroblast cell line, were obtained from the American Type Culture Collection (“ATCC”) and maintained in RPMI-1640, F-12k, and MEM mediums, respectively, supplemented with 10% FBS. Cell lines were maintained at 37° C. under a humidified atmosphere and 5% CO2 for testing of the cytotoxicity of betulinol derivatives. The cytotoxicity assay was performed using MTT assay according to the instructions of ATCC protocol. Cells 1×10^5 in 0.1 ml/well were plated in 96-well culture plates (Costar) and incubated with a different dilution of betulinol derivatives for 24, 48, and 72 hours. Ten μl of 3-[4,5-dimethylthiazol-2-yl]-2,5 diphenyl tetrazolium bromide was added into each well at the end of each incubation period. The reaction product, formazan, was dissolved in the detergent, and the absorbance was read at 540 nm (Ref).
However, these compounds were not tested on prostate cancer LNCaP cell line by NCI. […] The anti-tumor activity of the compounds was determined at three doses and the total growth inhibition kill effect as pertinent of the control at 24, 48, and 72 hours as presented in Table 11.

[2] = 1.34 mg in 31 μL ethanol + 700 μL human serum
LNCaP xenografts = system: LNCaP xenografts; parameters: species or system athymic mice; details: mouse, in vivo
Procedure: All the animal studies were performed according to the guidelines and approval of the Institutional Animal Care and Use Committee and Research Animal Resource Center of Weill Medical College of Cornell University, New York. Twelve mice of 13 weeks of age were purchased from The National Cancer Institute (NCI) and were housed in a pathogen-free environment under controlled conditions of light and humidity and with free access to food and water. LNCaP cells were grown in RPMI-1640 with 10% FBS until 80-90% confluent. Cells were scraped into PBS and collected by centrifugation. The LNCAP cell pellets were suspended in Matrigel (Ref) at 2.5×10^7 cells/ml. Mice were injected subcutaneously (“s.c.”) with 200 μl (5×10^6 cells) of the cell suspension at one site on the flank. Visible tumor grew after 7-8 days following implantation and mice were divided into three groups of four mice each.
Mice received s.c. injection daily for ten days. […] Tumors were measured daily with calipers, and tumor volumes were calculated by the formula: π/6(l×w×h). Animals were also weighed daily and monitored for general health status and vital signs of possible toxicity due to treatment. At the end of the treatment period, the animals were sacrificed and tumors were excised, weighed and prepared for immunohistochemical and histological studies. […]

[3] = Solubilization in PBS containing human γ-globulin, human albumin and ethanol; details: 1 × 10^−3 mol/L
Excerpt: Human γ-Globulin and human albumin are two major biocompatible components in human serum.

184B5/HER = assay: In vitro cytotoxicity, Breast (1), 184B5/HER; format: cell-based; details: 1 × 10^−4 M

## C=C(C)C1CCC2(C(=O)O)CC[C@]3(C)[C@H](CC[C@@H]4[C@@]5(C)CCC(=O)C(C)(C)[C@@H]5CC[C@]43C)C12 (stereo partly drawn) [Compound 4, Betulonic Acid]
[1]; 3% DMSO in culture medium
  State of solution: Suspension
[1]; 9% DMSO in culture medium
  State of solution: Suspension
[1]; 14% DMSO in culture medium
  State of solution: Cloudy
[1]; 20% DMSO in culture medium
  State of solution: clear solution
[1]; 20% DMSO in culture medium, listed as BA
  State of solution: Clear
[1]; out of 3 mg, 1% DMSO in culture medium containing 10% FBS, supernatant after centrifugation
  amount of betulonic acid dissolved: 0.4 mg
LNCaP; 24 hours
  inhibition at 25 µM: 11.4%
  inhibition at 2.5 µM: 14.7%
  inhibition at 0.25 µM: 3.01%
LNCaP; 48 hours
  inhibition at 25 µM: 32.6%
  inhibition at 2.5 µM: 43%
  inhibition at 0.25 µM: 28.3%
[2]
  Observation: Clear Solution
LNCaP xenografts
  general health and vital signs during treatment: no adverse effects on vital signs
[3]; ethanol 220 μL, γ-globulin 1.48 mL, albumin 0.49 mL
  Observation: Cloudy
[3]; ethanol 280 μL, γ-globulin 0 mL, albumin 2.50 mL
  Observation: Complete
[3]; ethanol 280 μL, γ-globulin (27 mg/mL in PBS) 2.50 mL, albumin (42 mg/mL in PBS) 0 mL
  Observation: Suspension
[3]; ethanol 308 μL, γ-globulin 0.69 mL, albumin 2.07 mL
  Observation: Almost Clear
[3]; ethanol 330 μL, γ-globulin 1.48 mL, albumin 1.48 mL
  Observation: Little Cloudy
[3]; ethanol 352 μL, γ-globulin 0.32 mL, albumin 2.85 mL
  Observation: Clear
184B5/HER
  Percent Killed: Toxic
